In patent US20040176310A1, “Use of extracts and preparations from iris plants and tectorigenin as medicaments” (priority 2001, published 2004):

Key:
[1] = system: Nerve Growth Factor (NGF); assay: gene expression of Nerve Growth Factor (bladder); type: in vivo, rat
Description: Bladder tonus is largely influenced by nerve cells located in the bladder wall and other vegetative nerve cells. The “Nerve Growth Factor” (NGF) is an indicator for the local activity of the nerve cells.

IGF1 = IGF1 gene expression in the prostate of castrated male rats; type: in vivo, rat
Description: (§1) The prostate regression induced by castration could be antagonized by testosterone in experiments with rats.

prostate = prostate regression / testosterone-induced prostate growth in castrated rats; type: in vivo, rat
Description: as §1

estrogen receptor-alpha = assay: gene expression of estrogen receptor-alpha in the bladder of castrated rats; type: in vivo, rat
[2] = system: estrogen receptor of alpha-subtype; assay: gene expression of estrogen receptor alpha-subtype in the prostate of male castrated rat; type: in vivo
estrogen receptor-beta = assay: gene expression of estrogen receptor-beta in the prostate of male castrated rat; type: in vivo

Structure (SMILES)	gene expression of Nerve Growth Factor (NGF) [1]	gene expression of the growth factor IGF1 (IGF1)	prostate regression induced by castration (prostate)	gene expression of the estrogen receptor-alpha (estrogen receptor-alpha)	gene expression of the estrogen receptor of alpha-subtype [2]	gene expression of the estrogen receptor-beta (estrogen receptor-beta)
C[C@]12CC[C@H]3[C@@H](CCC4=CC(=O)CC[C@@]43C)[C@@H]1CC[C@@H]2O [testosterone]	observed under neither estradiol nor testosterone	regulated up	antagonized			
C[C@]12CC[C@@H]3c4ccc(O)cc4CC[C@H]3[C@@H]1CC[C@@H]2O [estradiol, 17β-estradiol]	observed under neither estradiol nor testosterone			regulate down	significantly inhibit	without having an effect
